Laboratory results: BindingDB's records for doi:10.3109/14756366.2012.688042 (Ondokuz Mayis University, 2013)

What was measured:
[1] = target: T1, Glutathione reductase, mitochondrial (Homo sapiens, UniProt P00390); assay: Glutathione Reductase Activity Assay; details: pH 8
T1 sequence (P00390 whole entry): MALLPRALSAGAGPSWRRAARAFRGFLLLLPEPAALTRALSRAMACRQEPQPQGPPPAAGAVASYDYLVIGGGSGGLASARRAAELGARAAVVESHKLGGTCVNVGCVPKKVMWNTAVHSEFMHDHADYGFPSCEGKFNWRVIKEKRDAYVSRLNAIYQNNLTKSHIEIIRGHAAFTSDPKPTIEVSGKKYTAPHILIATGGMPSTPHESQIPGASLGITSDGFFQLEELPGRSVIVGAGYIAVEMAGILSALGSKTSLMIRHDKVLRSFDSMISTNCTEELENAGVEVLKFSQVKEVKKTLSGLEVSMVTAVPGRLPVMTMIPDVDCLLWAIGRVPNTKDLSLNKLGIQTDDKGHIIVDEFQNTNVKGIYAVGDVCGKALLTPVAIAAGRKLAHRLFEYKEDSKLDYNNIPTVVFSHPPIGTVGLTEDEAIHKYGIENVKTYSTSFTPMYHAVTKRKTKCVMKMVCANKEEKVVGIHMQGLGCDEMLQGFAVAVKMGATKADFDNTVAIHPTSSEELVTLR
Protocol: Enzymatic activity was measured by Beutler's method with a Shimadzu Spectrophotometer UV-(1208), at 25°C. The assay system contained 100 mM Tris-HCl buffer pH 8.0, including 0.5 mM EDTA, 3.3 mM GSSG and 0.1 mM NADPH. One enzyme unit is defined as the oxidation of 1 μmol NADPH per min under the assay condition at 25°C.

[2] = target: T2, Microsomal glutathione S-transferase 1 (Homo sapiens, UniProt P10620); assay: Glutathione S-transferase Activity Assay; details: pH 6.5
T2 sequence (P10620 whole entry): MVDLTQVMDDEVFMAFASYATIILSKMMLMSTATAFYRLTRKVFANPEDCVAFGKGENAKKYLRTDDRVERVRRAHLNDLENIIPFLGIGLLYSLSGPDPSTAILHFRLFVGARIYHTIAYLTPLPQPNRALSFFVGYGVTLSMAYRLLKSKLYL
Protocol: Enzymatic activity was determined spectrophotometrically by measuring the conjugation of CDNB with GSH. The 1 ml assay mixture contained 0.5 mM CDNB, 1 mMGSH, and 100 mM potassium phosphate buffer, pH 6.5. The rate of increase in absorbance at 340 nm was measured for 5 mm at 37°C against a blank containing thereaction mixture without enzyme.

Glutathione peroxidase 1 = target: T3, Glutathione peroxidase 1 (Homo sapiens, UniProt P07203); assay: Glutathione Peroxidase Activity Assay; details: pH 7
T3 sequence (P07203 whole entry): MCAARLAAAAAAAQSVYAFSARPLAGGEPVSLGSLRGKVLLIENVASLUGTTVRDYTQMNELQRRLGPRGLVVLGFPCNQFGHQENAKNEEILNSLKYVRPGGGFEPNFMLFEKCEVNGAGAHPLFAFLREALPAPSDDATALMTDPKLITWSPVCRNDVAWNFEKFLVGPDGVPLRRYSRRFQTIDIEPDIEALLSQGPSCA
Protocol: Glutathione peroxidase was assayed in a l-ml system containing 0.1 M potassium phosphate buffer, pH 7.0, 0.2 mM NADPH, 1 i.u. glutathione reductase, 4 mM GSH,4 mM EDTA, 4 mM sodium azide. The reaction mixture was incubated at 37°C for 10 min after which 10 μl of 10 mM t-butyl hydroperoxide were added to start the reaction. No t-butyl hydroperoxide was added to the blank cuvette. The rate of reaction was measured at 37°C by following the decrease in the absorbance at 340 nm using a spectrophotometer.

IC50 [1] | Ki [1] | IC50 [2] | Ki [2] | IC50 (Glutathione peroxidase 1) | Ki (Glutathione peroxidase 1) | Compound
18.8 µM | 10.4 µM | 56.4 µM | 32.4 µM | 44.3 µM | 32.7 µM | CO/N=C(\C(=O)N[C@@H]1C(=O)N2C(C(=O)O)=C(COC(N)=O)CS[C@H]12)c1ccco1 [640/359]
21.3 µM | 17.3 µM | 61.8 µM | 35.4 µM | 48.6 µM | 34.1 µM | CO/N=C(\C(=O)N[C@@H]1C(=O)N2C(C(=O)O)=C(CSc3nc(=O)c(=O)[nH]n3C)CS[C@H]12)c1csc(N)n1 [(6R,7R)-7-{2-(2-Amino-thiazol-4-yl)-2-[(Z)-methoxyimino]-acetylamino}-3-(2-methyl-5,6-dioxo-1,2,5,6-tetrahydro-[1,2,4]triazin-3-ylsulfanylmethyl)-8-oxo-5-thia-1-aza-bicyclo[4.2.0]oct-2-ene-2-carboxylic acid]
48.4 µM | 28.7 µM | 484 µM | 267 µM | 313 µM | 245 µM | CCN1CCN(C(=O)N[C@@H](C(=O)N[C@@H]2C(=O)N3C(C(=O)O)=C(CSc4nnnn4C)CS[C@H]23)c2ccc(O)cc2)C(=O)C1=O [CEFOPERAZONE]
39.7 µM | 22.8 µM | 278 µM | 165 µM | 186 µM | 121 µM | CO/N=C(\C(=O)N[C@@H]1C(=O)N2C(C(=O)O)=CCS[C@H]12)c1csc(N)n1 [Ceftizoxime]
